These are literature values, as cited in patent publication US20060013877A1 (Nanohybrid Co., Ltd., priority 2002, published 2006).

`CCC(C)n1ncn(-c2ccc(N3CCN(c4ccc(OC[C@H]5CO[C@](Cn6cncn6)(c6ccc(Cl)cc6Cl)O5)cc4)CC3)cc2)c1=O` (mixture of isomers) [itraconazole, (±)-cis-4-[4-[4-[4-[[2-(2,4-dichlorophenyl)-2-(1H-1,2,4-triazole-1-ylmethyl)-1,3-dioxoran-4-yl]methoxy]phenyl]-1-piperazinyl]phenyl]-2,4-dihydro-2-(1-methylpropyl)-3H-1,2,4-triazole-3-one]: the water solubility entry was “about 1 mg/ml”.
